{
  "source": "patent US20040242671A1",
  "about": "“Use of 2-oxo-1-pyrrolidine derivatives for the preparation of a drug” (priority 2001, published 2004)",
  "tested_on": "MPTP-lesioned marmoset model of Parkinson's disease",
  "assay": "Activity and on-time with Ropinirole, MPTP-lesioned marmoset (Example 3)",
  "type": "in vivo, marmosets (Callithrix jacchus)",
  "conditions": "for \"on-time\" / Activity: P<0.01; for Enhancement of \"on-time\": six hour experiment",
  "procedure": "This study was designed to investigate whether Levetiracetam has a potential as an adjunctive anti-parkinsonian agent to dopamine replacement therapy in the 1-methyl-4-phenyl-1,2,3,6-tetrahydropyridine (MPTP)-lesioned marmoset model of Parkinson's disease. The effect of Levetiracetam on Ropinirole alleviation of parkinsonism symptoms was investigated. The study was performed on six adult marmosets (Callithrix jacchus; 4 female, 2 male). The marmosets were rendered parkinsonian by subcutaneous injection of 2 mg/kg MPTP for 5 consecutive days. The marmosets were allowed to recover for 18 weeks until their parkinsonism was stable. The degree of activity and disability before and after MPTP treatment were assessed using a combination of scales that measure locomotor activity, mobility, bradykinesia and posture. Animals were treated with L-DOPA 12 mg/kg b.i.d. for 6 weeks. After this time, animals were used for assessment of potential symptomatic antiparkinsonian therapy. All drugs were administered orally in a volume of 5 ml/kg via a syringe in the animal's home cage. The animals were immediately transferred to an experimental cage (60 cm×55 cm×75 cm, with the perch 25 cm from floor of cage) for behavioural assessment. Vehicle was apple juice in all cases. The doses were 3.75 mg/kg of Ropinirole in combination with Levetiracetam at 13, 30 and 60 mg/kg. Behaviour was assessed for 6 hours post drug administration. 1) Activity—a quantitative assessment using computer-based activity monitors was obtained every 5 minutes for the duration of the experiment. Behavioural test 1 (activity) was assessed every 5 minutes for 6 hours post drug administration. Behavioural tests 2 (parkinsonian disability) was assessed for 10 minutes every 30 minutes over the course of 6 hours, by post hoc analysis of video-recordings by an observer blinded to the treatment. The score given/achieved in each 10 minute time period was presented. Cumulated data for parkinsonian disability, range of movement, bradykinesia and postural abnormalities were analysed with a non-parametric repeated measures one-way ANOVA (Friedman's test) followed by Dunn's multiple comparison test (Graphpad Prism version 3).",
  "key": {"[1]": {"conditions": "Levetiracetam 13 mg/kg + Ropinirole 3.75 mg/kg"}, "[2]": {"conditions": "Levetiracetam 30 mg/kg + Ropinirole 3.75 mg/kg"}},
  "data": [
    {"smiles": "CC[C@@H](C(N)=O)N1CCCC1=O", "note": "[levetiracetam, (S)-α-ethyl-2-oxo-1-pyrrolidineacetamide]", "values": [
      {"measurement": "\"on-time\"", "setting": "[1]", "result": "significantly increased"},
      {"measurement": "Activity", "setting": "[1]", "result": "significantly increased"},
      {"measurement": "Enhancement of \"on-time\"", "setting": "[1]", "result": "approximately 82%"},
      {"measurement": "\"on-time\"", "setting": "[2]", "result": "significantly increased"},
      {"measurement": "Activity", "setting": "[2]", "result": "significantly increased"},
      {"measurement": "Enhancement of \"on-time\"", "setting": "[2]", "result": "~69", "unit": "%"}
    ]}
  ]
}
